pIC50: −log10 of the molar value. Like-named read-outs stand apart in the source and are kept apart here.
Columns and labels:
[1] = target: CDK2/Cyclin E1 (Homo sapiens, UniProt P24941); experiment: CDK2/Cyclin E1 TR-FRET biochemical assay (0.060 mM ATP); conditions: 120 minutes reaction
Method: (§1) Compounds disclosed herein were tested for inhibition of CDK2/Cyclin E1 or CDK1/Cyclin B1 kinase in an assay based on the time-resolved fluorescence-resonance energy transfer (TR-FRET) methodology. The assay was carried out in 384-well low volume black plates in a reaction mixture containing CDK2/Cyclin E1 or CDK1/Cyclin B1, 0.060 mM ATP for CDK2/Cyclin E1 or 0.015 mM ATP for CDK1/Cyclin B1, 0.15 μM Rb (Ser780)-biotin substrate and 0-10 μM compound in buffer containing 50 mM HEPES pH7.0, 0.02% NaN3, 0.01% BSA, 0.1 mM Orthovanadate, 50 mM MgCl2, 1 mM DTT and 0.005% Tween-20. The kinase was incubated with compound for 60 minutes at room temperature and the reaction was initiated by the addition of ATP and Rb (Ser780)-biotin substrate. After reaction at room temperature for 120 minutes, an equal volume of stop/detection solution was added according to the manufacture's instruction (Cisbio Bioassays). The stop/detection solution contained Streptavidin-XL665 and Anti-pRb (Ser780) mAb-Eu Cryptate in Detection buffer (Cisbio Bioassays). Plates were incubated at room temperature for 60 minutes, and the TR-FRET signals (ex337 nm, em665 nm/620 nm) were recorded on a PHERAstar FSX plate reader (BMG Labtech). The inhibition percentage of CDK2/Cyclin E1 or CDK1/Cyclin B1 kinase activity in presence of increasing concentrations of compounds was calculated based on the ratio of fluorescence at 665 nm to that at 620 nm. The IC50 for each compound was derived from fitting the data to the four-parameter logistic equation by Dotmatics.

[2] = test system: HEK-293 cells; experiment: HEK-293 cell cytotoxicity detection (CellTiter-Glo); type: cell-based; conditions: incubation of 72 h, CellTiter-Glo luminescence
Method: HEK-293 cells were treated with compounds diluted in 0.4% DMSO, dilution was done according to the following protocol: (1) making 250× stock solution in DMSO from 10 mM by 4-fold dilution, total 8 doses were included; (2) making 2 solution in cell culture medium by transferring 1 μl 250× stock solution into 124 μl medium; (3) adding 50 μl of 2× solution to cells for incubation of 72 h.
25 μl of the CellTiter-Glo® Reagent [(PromegaCat #G9242)] was added to each well in the 96-well plate. The contents were mixed for 2 minutes on an orbital shaker to induce cell lysis. The plate was then allowed to incubate at room temperature for 10 minutes to stabilize luminescent signal. Luminescence was recorded on BMG PheraStar with luminescence protocol.
The IC50 value of a compound can be obtained by fitting the following equation: […]
Wherein, X and Y are known values, and IC50, Hillslope, Top and Bottom are the parameters obtained by fitting with software. Y is the inhibition percentage (calculated from the equation), X is the concentration of the compound; IC50 is the concentration of the compound when the 50% inhibition is reached. The smaller the IC50 value is, the stronger the inhibitory ability of the compound is. Vice versa, the higher the IC50 value is, the weaker the ability the inhibitory ability of the compound is; Hillslope represents the slope of the fitted curve, generally around 1*; Bottom represents the minimum value of the curve obtained by data fitting, which is generally 0%±20%; Top represents the maximum value of the curve obtained by data fitting, which is generally 100%±20%. The experimental data were fitted by calculating and analyzing with Dotmatics data analysis software.

[3] = target: CDK1/Cyclin B1 (Homo sapiens, UniProt P06493); experiment: CDK1/Cyclin B1 TR-FRET biochemical assay (0.015 mM ATP); conditions: 120 minutes reaction
Method: as §1

Chain of CDK1/Cyclin B1 (P06493 whole entry): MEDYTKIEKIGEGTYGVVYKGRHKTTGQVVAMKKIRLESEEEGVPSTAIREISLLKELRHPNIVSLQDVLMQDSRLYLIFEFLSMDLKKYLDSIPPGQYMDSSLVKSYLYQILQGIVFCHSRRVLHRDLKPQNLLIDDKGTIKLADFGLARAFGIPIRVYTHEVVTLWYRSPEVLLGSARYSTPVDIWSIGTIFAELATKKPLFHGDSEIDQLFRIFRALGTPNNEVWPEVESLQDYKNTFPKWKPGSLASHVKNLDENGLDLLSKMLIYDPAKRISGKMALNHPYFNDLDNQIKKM
Chain of CDK1/Cyclin B1 (P14635 whole entry partner): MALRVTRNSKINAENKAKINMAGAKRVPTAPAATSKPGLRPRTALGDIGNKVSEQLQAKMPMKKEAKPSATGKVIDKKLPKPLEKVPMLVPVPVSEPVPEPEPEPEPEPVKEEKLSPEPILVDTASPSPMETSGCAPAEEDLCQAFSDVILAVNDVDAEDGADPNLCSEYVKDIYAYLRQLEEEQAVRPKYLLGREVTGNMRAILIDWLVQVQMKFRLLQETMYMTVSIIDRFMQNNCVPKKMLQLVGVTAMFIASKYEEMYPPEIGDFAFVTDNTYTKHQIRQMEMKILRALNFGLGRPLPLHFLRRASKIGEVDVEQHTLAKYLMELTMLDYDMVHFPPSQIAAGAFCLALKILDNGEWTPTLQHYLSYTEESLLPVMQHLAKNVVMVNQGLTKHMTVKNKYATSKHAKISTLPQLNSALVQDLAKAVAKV

pIC50 [1] | pIC50 [3] | Structure (SMILES) | pIC50 ([2]; Homo sapiens, HEK293, 72 h) | pIC50 ([2]; read-out: HEK293 IC50)
9.30 | 8.10 | CC(C)NC(=O)O[C@H]1CC[C@@H](c2cc(Nc3ccc4c(c3F)CS(=O)(=O)C4)n[nH]2)C1 (relative stereo) [Example 8b, cis-3-(3-((4-fluoro-2,2-dioxido-1,3-dihydrobenzo[c]thiophen-5-yl)amino)-1H-pyrazol-5-yl)cyclopentyl isopropylcarbamate] | 6.33 | –
8.39 | 6.88 | CC(C)NC(=O)OC1CCC(c2cc(Nc3ccc4c(c3F)S(=O)(=O)CC4)n[nH]2)C1 (single isomer, unassigned) [Example 3a, cis-3-(3-((7-fluoro-1,1-dioxido-2,3-dihydrobenzo[b]thiophen-6-yl)amino)-1H-pyrazol-5-yl)cyclopentyl isopropylcarbamate] | – | 5.75
8.72 | 7.51 | CC(C)NC(=O)OC1CCC(c2cc(Nc3ccc4c(c3F)S(=O)(=O)CC4)n[nH]2)C1 (single isomer, unassigned) [Example 3b, cis-3-(3-((7-fluoro-1,1-dioxido-2,3-dihydrobenzo[b]thiophen-6-yl)amino)-1H-pyrazol-5-yl)cyclopentyl isopropylcarbamate] | – | 6.17
9.15 | 7.52 | CC(C)NC(=O)O[C@@H]1CC[C@H](c2cc(Nc3ccc4c(c3F)CS(=O)(=O)C4)n[nH]2)C1 (single isomer, unassigned) [Example 8a, cis-3-(3-((4-fluoro-2,2-dioxido-1,3-dihydrobenzo[c]thiophen-5-yl)amino)-1H-pyrazol-5-yl)cyclopentyl isopropylcarbamate] | 6.29 | –
9.10 | 7.30 | CCCNC(=O)OC1CCC(c2cc(Nc3ccc4c(c3F)CS(=O)(=O)C4)n[nH]2)C1 (single isomer, unassigned) [Example 9a, cis-3-(3-((4-fluoro-2,2-dioxido-1,3-dihydrobenzo[c]thiophen-5-yl)amino)-1H-pyrazol-5-yl)cyclopentyl propylcarbamate] | – | < 5.00
9.15 | 7.92 | CCCNC(=O)OC1CCC(c2cc(Nc3ccc4c(c3F)CS(=O)(=O)C4)n[nH]2)C1 (single isomer, unassigned) [Example 9b, cis-3-(3-((4-fluoro-2,2-dioxido-1,3-dihydrobenzo[c]thiophen-5-yl)amino)-1H-pyrazol-5-yl)cyclopentyl propylcarbamate] | – | 5.36

The remaining lines, values behind:

Structure (SMILES) | pIC50 [1] | pIC50 [3] | pIC50 ([2]; Homo sapiens, HEK293, 72 h) | pIC50 ([2]; read-out: HEK293 IC50)
CC(C)NC(=O)O[C@H]1CC[C@@H](c2cc(Nc3ccc4c(c3)CS(=O)(=O)C4)n[nH]2)C1 (relative stereo) [Example 7, cis-3-(3-((2,2-dioxido-1,3-dihydrobenzo[c]thiophen-5-yl)amino)-1H-pyrazol-5-yl)cyclopentyl isopropylcarbamate] | 8.96 | 7.92 | 6.17 | –
CC1(NC(=O)O[C@H]2CC[C@@H](c3cc(Nc4ccc5c(c4F)CS(=O)(=O)C5)n[nH]3)C2)CC1 (relative stereo) [Example 11, cis-3-(3-((4-fluoro-2,2-dioxido-1,3-dihydrobenzo[c]thiophen-5-yl)amino)-1H-pyrazol-5-yl)cyclopentyl (1-methylcyclopropyl)carbamate] | 9.52 | 8.48 | 6.50 | –
COCC(C)(C)NC(=O)O[C@H]1CC[C@@H](c2cc(Nc3ccc4c(c3F)CS(=O)(=O)C4)n[nH]2)C1 (relative stereo) [Example 14, cis-3-(3-((4-fluoro-2,2-dioxido-1,3-dihydrobenzo[c]thiophen-5-yl)amino)-1H-pyrazol-5-yl)cyclopentyl (1-methoxy-2-methylpropan-2-yl)carbamate] | 9.22 | 8.00 | < 5.00 | –
CC(C)NC(=O)OC1CCC(c2cc(Nc3ccc4c(c3F)CCS4(=O)=O)n[nH]2)C1 (single isomer, unassigned) [Example 2a, cis-3-(3-((4-fluoro-1,1-dioxido-2,3-dihydrobenzo[b]thiophen-5-yl)amino)-1H-pyrazol-5-yl)cyclopentyl isopropylcarbamate] | 7.80 | 6.23 | < 5.00 | –
CC(C)NC(=O)OC1CCC(c2cc(Nc3ccc4c(c3F)CCS4(=O)=O)n[nH]2)C1 (single isomer, unassigned) [Example 2b, cis-3-(3-((4-fluoro-1,1-dioxido-2,3-dihydrobenzo[b]thiophen-5-yl)amino)-1H-pyrazol-5-yl)cyclopentyl isopropylcarbamate] | 8.32 | 6.68 | – | < 5.00
CC[C@H](C)NC(=O)OC1CCC(c2cc(Nc3ccc4c(c3F)S(=O)(=O)CC4)n[nH]2)C1 (stereo in doubt) [Example 5, cis-3-(3-((7-fluoro-1,1-dioxido-2,3-dihydrobenzo[b]thiophen-6-yl)amino)-1H-pyrazol-5-yl)cyclopentyl ((S)-sec-butyl)carbamate] | 8.30 | 6.93 | 5.78 | –
CC[C@H](C)NC(=O)OC1CCC(c2cc(Nc3ccc4c(c3F)CS(=O)(=O)C4)n[nH]2)C1 (stereo in doubt) [Example 10, cis-3-(3-((4-fluoro-2,2-dioxido-1,3-dihydrobenzo[c]thiophen-5-yl)amino)-1H-pyrazol-5-yl)cyclopentyl ((S)-sec-butyl)carbamate] | 9.40 | 8.30 | 6.69 | –
